Reference: patent US9700046B2, “Herbicidal agents containing aclonifen” (BAYER CROPSCIENCE AG, priority 2012, dated 2017)

Experiments:
[1] = test system: Lolium spp. resistant to HRAC group B; assay: Greenhouse experiment, post-emergence treatment of resistant ryegrass biotypes (HRAC group B resistant); format: in vivo; details: post-emergence (PO, BBCH 11), about 3 weeks after application, dose g of AS/ha: aclonifen 225, pendimethalin 300, diflufenican 30, mixture 225 + 300 + 30, mesosulfuron + iodosulfuron + mefenpyr 15 + 3 + 45
Description: (§1) In the standard design of the test, seeds of various broad-leaved weed and weed grass biotypes (origins) were sown in a 8-13 cm diameter pot filled with natural soil of a standard field soil (loamy silt; non-sterile) and covered with a covering soil layer of about 1 cm. The pots were then cultivated in a greenhouse (12-16 h light, temperature day 20-22° C., night 15-18° C.) until the time of application. The pots were treated on a laboratory track sprayer with spray liquors comprising the compositions according to the invention, mixtures of the prior art or components used individually. Application of the active compounds or active compound combinations formulated as WG, WP, EC or otherwise was carried out at the appropriate growth stages of the plants. The amount of water used for spray application was 100-600 l/ha. After the treatment, the plants were returned to the greenhouses.
(§2) About 3 weeks after the application, the soil action or/and foliar action was assessed visually according to a scale of 0-100% in comparison to an untreated comparative group: 0%=no noticable effect compared to the untreated comparative group; 100%=full effect compared to the untreated comparative group.
(§3) 2. Post-emergence action against weeds: seeds of various broad-leaved weed and weed grass biotypes (origins) were sown in a 8-13 cm diameter pot filled with natural soil of a standard field soil (loamy silt; non-sterile) and covered with a covering soil layer of about 1 cm. […]
(§4) Insofar as herbicidal effects of the compositions according to the invention compared to mixtures of the prior art or compared to components applied individually against economically important mono- and dicotyledonous harmful plants were the center of attention, the synergistic herbicidal activities were calculated using Colby's formula (cf. S. R. Colby; Weeds 15 (1967), 20-22): E^C=(A+B+C)−(A×B+A×C+B×C)/100+(A×B×C)/10000 where: […]
(§5) Δ=difference (%) of the measured value (%) to the expected value (%) (measured value minus expected value). […]

[2] = test system: Lolium spp. resistant to HRAC group A; assay: Greenhouse experiment, post-emergence treatment of resistant ryegrass biotypes (HRAC group A resistant); format: in vivo; details: post-emergence (PO, BBCH 11), about 3 weeks after application, dose g of AS/ha: aclonifen 225, pendimethalin 300, diflufenican 30, mixture 225 + 300 + 30, pinoxaden + cloquintocet-mexyl 60 + 15
Description: as §1, §2, §3, §4, §5

Structure (SMILES) | herbicidal effect (visual assessment, scale 0-100% vs untreated), measured value [1] [%] | herbicidal effect (visual assessment, scale 0-100% vs untreated), measured value [2] [%]
O=C(Nc1ccc(F)cc1F)c1cccnc1Oc1cccc(C(F)(F)F)c1 [(C) diflufenican, N-(2,4-difluorophenyl)-2-[3-(trifluoromethyl)phenoxy]-3-pyridinecarboxamide] | 5 | 10
CCC(CC)Nc1c([N+](=O)[O-])cc(C)c(C)c1[N+](=O)[O-] [(B) pendimethalin, N-(1-ethylpropyl)-3,4-dimethyl-2,6-dinitrobenzenamine] | 0 | 5
Nc1c([N+](=O)[O-])ccc(Oc2ccccc2)c1Cl [(A) aclonifen, 2-chloro-6-nitro-3-phenoxybenzenamine] | 50 | 25
